The values that follow come from ChEMBL document CHEMBL1139193, “Application of the Suzuki-Miyaura cross-coupling to increase antimicrobial potency generates promising novel antibacterials” (Bioorg Med Chem Lett, 2007).

Converted amounts (≈) assume the structure as drawn. The source made the active and inactive calls. No cut-off for these calls is given here. Where a SMILES comes first, the peptide text is derived from it. [ ]: non-standard residue; d: D form. Bip = N[C@@H](Cc1ccc(-c2ccccc2)cc1)C(=O)O; Phe(4-I) = N[C@@H](Cc1ccc(I)cc1)C(=O)O

Series [1] deals with Staphylococcus epidermidis. The experiment in a line: Antibacterial activity against methicillin-resistant Staphylococcus epidermidis. The class given is functional.
In series [2] the test system is Streptococcus pyogenes. In words: Antibacterial activity against Streptococcus pyogenes. The series is classed as functional.
Series [3] deals with Staphylococcus aureus. The experiment in a line: Antibacterial activity against Staphylococcus aureus. The series is classed as functional.
In series [4] the test system is Staphylococcus aureus. In words: Antibacterial activity against methicillin-resistant Staphylococcus aureus. The class given is functional.
Series [5] in a line: Toxicity assessed as hemolysis of human erythrocytes. The series is classed as cell-based, Erythrocyte.
Series [6] relates to Streptococcus pyogenes. The experiment in a line: Antibacterial activity against Streptococcus pyogenes upto 100 ug/mL. The class given is functional, organism-based.
Series [7] deals with Staphylococcus aureus. The experiment in a line: Antibacterial activity against Staphylococcus aureus upto 100 ug/mL. The series is classed as functional, organism-based.
The test system of series [8] is Staphylococcus aureus. The experiment in a line: Antibacterial activity against methicillin-resistant Staphylococcus aureus upto 100 ug/mL. The series is classed as functional, organism-based.
The nature of series [9]: Toxicity assessed as hemolysis of human erythrocytes at 500 ug/mL. The class given is cell-based, Erythrocyte. To be noted: read-out: Activity.

For the compound `N=C(N)NCCC[C@H](NC(=O)[C@H](Cc1ccc(/C=C/c2ccccc2)cc1)NC(=O)[C@@H](N)CCCNC(=N)N)C(N)=O`, the MIC in [1] worked out at 14 µM (≈ 8.1 µg/mL). For the same compound, the result with Streptococcus pyogenes [2], in the series on Staphylococcus aureus [3] and in the series on Staphylococcus aureus [4] was inactive.
Turning to `N=C(N)NCCC[C@H](NC(=O)[C@H](Cc1ccc(-c2ccc(-c3ccccc3)cc2)cc1)NC(=O)[C@@H](N)CCCNC(=N)N)C(N)=O`, the MIC turned out to be 4.8 µM (≈ 3.02 µg/mL) in series [1], 20 µM (≈ 12.6 µg/mL) in the series with Streptococcus pyogenes [2], 9.1 µM (≈ 5.72 µg/mL) in the series with Staphylococcus aureus [3] and 8.3 µM (≈ 5.22 µg/mL) against Staphylococcus aureus [4]. Further, the EC50 in [5] stood at 420 µg/mL (≈ 668 µM).
On to `CC(C)(C)c1ccc(-c2ccc(C[C@H](NC(=O)[C@@H](N)CCCNC(=N)N)C(=O)N[C@@H](CCCNC(=N)N)C(N)=O)cc2)cc1`, for which the minimum inhibitory concentration (MIC) in series [1] is 4.1 µM (≈ 2.5 µg/mL); against Streptococcus pyogenes [2], 25 µM (≈ 15.2 µg/mL); against Staphylococcus aureus [3] it was 11 µM (≈ 6.7 µg/mL); with Staphylococcus aureus [4] it was 9.7 µM (≈ 5.91 µg/mL).
For the compound `N=C(N)NCCC[C@H](NC(=O)[C@H](Cc1ccc(-c2ccccc2)cc1)NC(=O)[C@@H](N)CCCNC(=N)N)C(N)=O` (H-Arg-[Bip]-Arg-NH2), the outcome in the series with Streptococcus pyogenes [6], in the series with Staphylococcus aureus [7] and with Staphylococcus aureus [8] was inactive. For the same compound, in [1], the MIC amounted to 59 µM (≈ 32.6 µg/mL).
For `N=C(N)NCCC[C@H](NC(=O)[C@H](Cc1ccc(-c2cccc(-c3ccccc3)c2)cc1)NC(=O)[C@@H](N)CCCNC(=N)N)C(N)=O`, the MIC in series [1] amounted to 4.8 µM (≈ 3.02 µg/mL); against Staphylococcus aureus [3], 16 µM (≈ 10.1 µg/mL); against Staphylococcus aureus [4] it was 11 µM (≈ 6.92 µg/mL). For the same compound, in the series on Streptococcus pyogenes [2], the outcome was inactive.
Take `CCCCc1ccc(-c2ccc(C[C@H](NC(=O)[C@@H](N)CCCNC(=N)N)C(=O)N[C@@H](CCCNC(=N)N)C(N)=O)cc2)cc1`: the minimum inhibitory concentration (MIC) came out at 4.1 µM (≈ 2.5 µg/mL) in series [1], 16 µM (≈ 9.74 µg/mL) with Streptococcus pyogenes [2], 9 µM (≈ 5.48 µg/mL) with Staphylococcus aureus [3] and 7 µM (≈ 4.26 µg/mL) in the series with Staphylococcus aureus [4]. Further, the hemolysis at 500 ug/mL in series [9] turned out to be 40%.
As for `N=C(N)NCCC[C@H](NC(=O)[C@H](Cc1ccc(-c2ccccc2-c2ccccc2)cc1)NC(=O)[C@@H](N)CCCNC(=N)N)C(N)=O`, the values for the MIC (in series [1]; with Staphylococcus aureus [3]; against Staphylococcus aureus [4]) were 6.4 µM (≈ 4.02 µg/mL), 28 µM (≈ 17.6 µg/mL) and 24 µM (≈ 15.1 µg/mL), respectively. Moreover, in the series on Streptococcus pyogenes [2], the result was inactive.
Take `Cc1cc(C)cc(-c2ccc(C[C@H](NC(=O)[C@@H](N)CCCNC(=N)N)C(=O)N[C@@H](CCCNC(=N)N)C(N)=O)cc2)c1`: it took 9 µM (≈ 5.23 µg/mL) to inhibit growth in [1] (MIC). In addition, the outcome in the series on Streptococcus pyogenes [2], with Staphylococcus aureus [3] and in the series on Staphylococcus aureus [4] was inactive.
In the case of `N=C(N)NCCC[C@H](NC(=O)[C@H](Cc1ccc(I)cc1)NC(=O)[C@@H](N)CCCNC(=N)N)C(N)=O` (H-Arg-[Phe(4-I)]-Arg-NH2), the result with Streptococcus pyogenes [6], in the series with Staphylococcus aureus [7] and in the series with Staphylococcus aureus [8] was inactive. For the same compound, in [1], the minimum inhibitory concentration (MIC) was 116 µM (≈ 69.9 µg/mL).
With `N=C(N)NCCC[C@H](NC(=O)[C@H](Cc1ccc(-c2cccc3ccccc23)cc1)NC(=O)[C@@H](N)CCCNC(=N)N)C(N)=O`, the values for the minimal inhibitory concentration (MIC) (in [1]; against Staphylococcus aureus [4]) were 8.3 µM (≈ 5 µg/mL) and 29 µM (≈ 17.5 µg/mL), respectively. The outcome with Streptococcus pyogenes [2] and in the series on Staphylococcus aureus [3] was inactive.
As for `N=C(N)NCCC[C@H](NC(=O)[C@H](Cc1ccc(-c2ccc3ccccc3c2)cc1)NC(=O)[C@@H](N)CCCNC(=N)N)C(N)=O`, the MIC in series [1] was 5 µM (≈ 3.01 µg/mL); against Staphylococcus aureus [3], 25 µM (≈ 15.1 µg/mL); with Staphylococcus aureus [4], 25 µM (≈ 15.1 µg/mL). Besides, the outcome in the series with Streptococcus pyogenes [2] was inactive.
